One assay relates to p65 subunit of NF-κB. Description: Immunocytochemistry for NF-κB p65 localization in multiple myeloma cell lines. It is filed as cell-based, human. As to conditions: U266 cells, NBD-peptide 100 μM, 12 h. The method, then:
Red stain indicates the localization of p65 and blue stain (Hoechst) indicates nucleus (magnification 200×). […] U266 cells (2×10^6 cells/ml) were treated with indicated concentrations of NEMO-control or NBD-peptide (100 μM) for the indicated times. Nuclear extracts were then checked for the presence of NF-κB DNA-binding activity by EMSA. […] Untreated or NBD-peptide-treated (100 μM; 12 h) U266 cells were cytospun, and p65 immunocytochemistry was performed as described. Red stain indicates the localization of p65 and blue stain indicates nucleus (magnification 200×). […] U266 cells (2×10^6 cells/ml) were treated with indicated concentrations of NEMO-control or NBD-peptide (100 μM) for the indicated time periods, and cell viability was monitored by the trypan blue dye exclusion method. Percent cell killing was determined as: (number of trypan blue stained cells/total cells)×100. […] Stained slides were mounted with mounting medium (Sigma Colo.) and analyzed under an epifluorescence microscope (Labophot-2, Nikon, Tokyo, Japan). […] Cells with nuclear staining of NF-κB p65 or STAT3 were counted separately. One hundred cells were counted for each specimen, and the sample was graded on the basis of a 4-point scale: −, no nuclear positive cells (0%); +, low number of nuclear positive cells (<10%); ++, moderate number of nuclear positive cells (10–50%); +++, high number of nuclear positive cells (>50%).

The subject of assay [1] is U266 cells. Description: Cell viability by trypan blue dye exclusion after NBD peptide treatment. It is filed as cell-based, human. The conditions noted are these: NBD peptide 100 μM, 24 h. How it is done: FIG. 8A: U266 cells (2×10^6 cells/ml) were treated with indicated concentrations of NEMO-control or NBD-peptide (100 μM) for the indicated times. Nuclear extracts were then checked for the presence of NF-κB DNA-binding activity by EMSA. FIG. 8B: Untreated or NBD-peptide-treated (100 μM; 12 h) U266 cells were cytospun, and p65 immunocytochemistry was performed as described. Red stain indicates the localization of p65 and blue stain indicates nucleus (magnification 200×). FIG. 8C: U266 cells (2×10^6 cells/ml) were treated with indicated concentrations of NEMO-control or NBD-peptide (100 μM) for the indicated time periods, and cell viability was monitored by the trypan blue dye exclusion method. Percent cell killing was determined as: (number of trypan blue stained cells/total cells)×100.

The test system of assay [2] is U266 cells. Description: Cytotoxic effect of vincristine with or without curcumin (MTT). It is filed as cell-based, human. The conditions noted are these: vincristine 50 μM alone, 24 h. How it is done: The antiproliferative effects of curcumin against different multiple myeloma cell lines were determined by the MTT dye uptake method as described earlier (Manna et al., 1998). Briefly, cells (5000/well) were incubated in triplicate in a 96-well plate in the presence or absence of indicated test samples in a final volume of 0.1 ml for 24 h at 37° C. Thereafter, 0.025 ml of MTT solution (5 mg/ml in PBS) was added to each well. After a 2 h incubation at 37 ° C., 0.1 ml of extraction buffer (20% SDS, 50% dimethylformamide) was added. Incubation was continued for overnight at 37 ° C., and then the OD at 590 nm was measured using a 96-well multiscanner autoreader (Dynatech MR 5000), with extraction buffer as blank. Percent cell viability=(OD of the experiment samples/OD of the control)×100.

Assay [3] deals with multiple myeloma cell lines MM.1S, RPMI-8226 and U266. As to conditions: 50 μM PS-1145; cited from earlier work.

Consider “NH2-DRQIKIWFQNRRMKWKKTALDWSWLQTE-CONH2 (H-DRQIKIWFQNRRMKWKKTALDWSWLQTE-NH2) [NBD peptide, reference compound]”, for which, in the assay with p65 subunit of NF-κB, the “nuclear pool of the p65 subunit of NF-κB” value is recorded as “decrease in the nuclear pool of the p65 subunit of NF-κB”. Further, in the assay on U266 cells [1], the “suppression of cell growth” value is recorded as “Approximately 32%”.
As for `CC[C@]1(O)C[C@H]2CN(CCc3c([nH]c4ccccc34)[C@@](C(=O)OC)(c3cc4c(cc3OC)N(C=O)[C@H]3[C@@](O)(C(=O)OC)[C@H](OC(C)=O)[C@]5(CC)C=CCN6CC[C@]43[C@@H]65)C2)C1` [vincristine, reference compound], the “killing of U266 cells” value with U266 cells [2] was “minimally effective”.
Regarding `O=C(Nc1cc(Cl)cc2c1[nH]c1cnccc12)c1cccnc1` [PS-1145], the inhibition of proliferation result in assay [3] is on record as “less than 50%”.

Source of the values: patent US7196105B2, “Treatment of human multiple myeloma by curcumin” (Research Development Foundation, priority 2002, dated 2007).
